Laboratory results: BindingDB's records for doi:10.1021/jf000548p (Institut Pasteur Korea, 2020)

Key:
Cytochrome P450 3A4 = Cytochrome P450 3A4 (Homo sapiens, UniProt P08684); experiment: Inhibition of CYP3A4 (unknown origin)
Cytochrome P450 2D6 = Cytochrome P450 2D6 (Homo sapiens, UniProt P10635); experiment: Inhibition of CYP2D6 (unknown origin)
Cytochrome P450 1A2 = biological target: T1, Cytochrome P450 1A2 (Homo sapiens, UniProt P05177); experiment: Inhibition of CYP1A2 (unknown origin)
T1 sequence (P05177 whole entry): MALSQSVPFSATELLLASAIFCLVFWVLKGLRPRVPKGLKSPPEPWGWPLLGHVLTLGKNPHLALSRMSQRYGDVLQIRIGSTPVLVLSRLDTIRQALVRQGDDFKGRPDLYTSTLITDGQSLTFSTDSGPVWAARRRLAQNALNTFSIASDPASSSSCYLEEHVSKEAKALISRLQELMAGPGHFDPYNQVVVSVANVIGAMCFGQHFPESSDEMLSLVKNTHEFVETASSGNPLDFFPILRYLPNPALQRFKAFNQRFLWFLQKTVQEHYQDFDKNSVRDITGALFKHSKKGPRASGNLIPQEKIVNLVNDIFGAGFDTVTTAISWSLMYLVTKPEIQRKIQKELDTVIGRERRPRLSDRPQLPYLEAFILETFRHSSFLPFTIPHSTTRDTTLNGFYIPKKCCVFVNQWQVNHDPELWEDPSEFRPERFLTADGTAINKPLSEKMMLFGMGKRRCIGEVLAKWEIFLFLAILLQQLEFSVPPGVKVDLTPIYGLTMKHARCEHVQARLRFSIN

Cytochrome P450 2C9 = Cytochrome P450 2C9 (Homo sapiens, UniProt P11712); experiment: Inhibition of CYP2C9 (unknown origin)
Cytochrome P450 2C9, sequence (P11712 whole entry): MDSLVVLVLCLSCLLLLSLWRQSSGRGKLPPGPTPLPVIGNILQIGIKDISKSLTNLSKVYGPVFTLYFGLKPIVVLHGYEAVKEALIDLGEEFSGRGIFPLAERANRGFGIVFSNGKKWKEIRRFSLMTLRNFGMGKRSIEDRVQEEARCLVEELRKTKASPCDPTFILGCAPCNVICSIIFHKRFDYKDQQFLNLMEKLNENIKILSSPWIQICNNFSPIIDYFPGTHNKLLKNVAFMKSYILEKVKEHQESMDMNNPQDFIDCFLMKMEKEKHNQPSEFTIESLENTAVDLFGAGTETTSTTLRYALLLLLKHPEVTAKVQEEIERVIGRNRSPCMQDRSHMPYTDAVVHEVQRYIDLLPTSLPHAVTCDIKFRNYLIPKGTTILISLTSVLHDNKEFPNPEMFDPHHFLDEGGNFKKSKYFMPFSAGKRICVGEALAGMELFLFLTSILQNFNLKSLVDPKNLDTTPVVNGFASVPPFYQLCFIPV

Cytochrome P450 2C19 = Cytochrome P450 2C19 (Homo sapiens, UniProt P33261); experiment: Inhibition of CYP2C19 (unknown origin)
Cytochrome P450 2C19, sequence (P33261 whole entry): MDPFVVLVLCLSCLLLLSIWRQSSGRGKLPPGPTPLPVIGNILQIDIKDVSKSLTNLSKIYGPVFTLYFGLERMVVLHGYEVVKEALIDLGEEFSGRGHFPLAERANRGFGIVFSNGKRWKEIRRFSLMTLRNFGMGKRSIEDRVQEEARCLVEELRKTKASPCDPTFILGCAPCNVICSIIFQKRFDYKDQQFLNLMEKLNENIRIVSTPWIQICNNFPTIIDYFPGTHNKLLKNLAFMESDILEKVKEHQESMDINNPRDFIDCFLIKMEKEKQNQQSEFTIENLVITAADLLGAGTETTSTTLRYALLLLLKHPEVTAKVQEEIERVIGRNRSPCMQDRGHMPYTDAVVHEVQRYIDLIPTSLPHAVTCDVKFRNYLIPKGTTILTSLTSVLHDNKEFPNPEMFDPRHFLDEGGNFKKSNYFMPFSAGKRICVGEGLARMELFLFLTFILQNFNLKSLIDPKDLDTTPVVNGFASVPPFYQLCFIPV

[1] = biological target: Potassium voltage-gated channel subfamily H member 2 (Homo sapiens, UniProt Q12809); experiment: Inhibition of hERG
Potassium voltage-gated channel subfamily H member 2, sequence (Q12809 whole entry): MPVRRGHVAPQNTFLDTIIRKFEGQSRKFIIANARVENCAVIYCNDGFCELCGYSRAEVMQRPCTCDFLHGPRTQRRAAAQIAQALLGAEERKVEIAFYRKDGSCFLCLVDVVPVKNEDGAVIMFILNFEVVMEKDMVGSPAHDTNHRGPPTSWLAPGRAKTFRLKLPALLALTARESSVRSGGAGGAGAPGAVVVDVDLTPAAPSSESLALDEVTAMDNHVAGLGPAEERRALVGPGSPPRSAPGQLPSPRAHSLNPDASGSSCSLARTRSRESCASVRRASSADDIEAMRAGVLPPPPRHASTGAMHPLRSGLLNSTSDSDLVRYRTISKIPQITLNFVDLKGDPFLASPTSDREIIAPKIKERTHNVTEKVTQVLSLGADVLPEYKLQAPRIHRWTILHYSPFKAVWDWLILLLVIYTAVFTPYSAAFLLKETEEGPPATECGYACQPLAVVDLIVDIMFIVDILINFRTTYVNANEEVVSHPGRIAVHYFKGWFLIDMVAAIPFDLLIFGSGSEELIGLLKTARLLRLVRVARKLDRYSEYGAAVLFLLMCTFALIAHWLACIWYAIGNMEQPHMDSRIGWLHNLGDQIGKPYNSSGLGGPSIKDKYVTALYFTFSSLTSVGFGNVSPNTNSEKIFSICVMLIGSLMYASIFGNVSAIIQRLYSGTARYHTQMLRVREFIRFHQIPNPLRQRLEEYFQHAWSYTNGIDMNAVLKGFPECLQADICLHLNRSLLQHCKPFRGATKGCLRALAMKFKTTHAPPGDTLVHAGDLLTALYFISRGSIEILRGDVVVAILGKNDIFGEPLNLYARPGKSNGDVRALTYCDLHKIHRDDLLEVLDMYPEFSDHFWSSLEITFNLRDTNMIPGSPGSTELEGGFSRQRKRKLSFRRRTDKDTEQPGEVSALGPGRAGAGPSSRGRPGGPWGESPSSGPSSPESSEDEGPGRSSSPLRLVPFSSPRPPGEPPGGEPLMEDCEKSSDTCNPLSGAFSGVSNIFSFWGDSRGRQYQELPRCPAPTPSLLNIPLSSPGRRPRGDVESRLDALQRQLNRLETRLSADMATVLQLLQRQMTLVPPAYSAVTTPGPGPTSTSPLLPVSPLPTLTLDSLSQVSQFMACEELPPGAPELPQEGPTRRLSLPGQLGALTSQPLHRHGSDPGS

Cytochrome P450 3A4, sequence (P08684 whole entry): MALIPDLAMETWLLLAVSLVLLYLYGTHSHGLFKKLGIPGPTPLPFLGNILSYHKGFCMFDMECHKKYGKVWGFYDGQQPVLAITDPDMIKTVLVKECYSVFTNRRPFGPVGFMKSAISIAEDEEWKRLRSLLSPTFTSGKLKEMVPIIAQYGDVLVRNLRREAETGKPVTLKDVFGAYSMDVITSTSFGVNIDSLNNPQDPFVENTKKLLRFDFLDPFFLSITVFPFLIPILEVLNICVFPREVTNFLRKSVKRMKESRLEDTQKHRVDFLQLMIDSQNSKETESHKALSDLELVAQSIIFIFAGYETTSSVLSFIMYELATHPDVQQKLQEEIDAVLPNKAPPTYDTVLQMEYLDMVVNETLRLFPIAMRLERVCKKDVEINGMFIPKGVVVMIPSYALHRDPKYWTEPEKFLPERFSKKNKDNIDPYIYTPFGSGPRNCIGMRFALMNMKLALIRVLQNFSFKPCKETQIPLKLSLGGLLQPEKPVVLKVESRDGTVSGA
Cytochrome P450 2D6, sequence (P10635 whole entry): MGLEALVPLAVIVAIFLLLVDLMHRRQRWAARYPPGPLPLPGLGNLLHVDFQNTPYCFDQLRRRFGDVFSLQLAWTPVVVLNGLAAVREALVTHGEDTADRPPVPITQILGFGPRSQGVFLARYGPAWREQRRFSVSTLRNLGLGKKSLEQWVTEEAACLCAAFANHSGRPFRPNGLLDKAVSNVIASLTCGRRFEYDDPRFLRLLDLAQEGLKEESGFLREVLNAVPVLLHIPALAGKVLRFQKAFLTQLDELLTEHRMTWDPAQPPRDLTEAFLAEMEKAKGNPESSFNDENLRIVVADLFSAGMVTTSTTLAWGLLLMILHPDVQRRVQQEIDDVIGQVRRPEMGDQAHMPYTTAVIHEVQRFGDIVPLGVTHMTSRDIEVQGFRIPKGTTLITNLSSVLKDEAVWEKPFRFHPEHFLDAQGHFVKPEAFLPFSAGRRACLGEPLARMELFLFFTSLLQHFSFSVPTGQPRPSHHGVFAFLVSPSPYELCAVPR

| SMILES | IC50 (Cytochrome P450 3A4) | IC50 (Cytochrome P450 2D6) | IC50 (Cytochrome P450 1A2) | IC50 (Cytochrome P450 2C9) | IC50 (Cytochrome P450 2C19) | IC50 [1] |
| --- | --- | --- | --- | --- | --- | --- |
| O=C(Nc1ccc(-c2ccc(F)cn2)cc1)c1cc2sc(NCCN3CCOCC3)nc2s1 | 6.95 µM | 6.85 µM | > 100 µM | 7.41 µM | > 100 µM | 27.6 µM |
| Cc1nc2cc(NC(=O)c3cc4sc(N5CCC(C(=O)N(C)C)CC5)nc4s3)ccc2o1 | > 50 µM | > 50 µM | > 50 µM | > 50 µM | > 50 µM | > 30 µM |
